How the values were obtained:
[1] = molecular target: human FP receptor (Homo sapiens (Human), UniProt P43088); assay: In vitro test of inhibition of human FP receptor activity (PGF2α-induced calcium flux in FP-expressing CHEM1 cells); assay type: cell-based; conditions: PGF2α-induced (3 nM) calcium flux, some as mean values from multiple independent determinations
Description: • CRTH2 chemoattractant receptor-homologous molecule expressed on T helper type 2 cells • DMEM Dulbecco's modified Eagle's medium • DMSO dimethyl sulfoxide • DP PGD2 receptor • EC50 half-maximum effective concentration • Em emission • EP PGE2 receptor • Ex excitation • from Company (source) • FCS fetal calf serum • FP PGF2α receptor • HEPES 2-[4-(2-hydroxyethyl)piperazin-1-yl]ethanesulfonic acid • IC50 half-maximum inhibitory concentration • IP PGI2 receptor • MES 2-(N-morpholino)ethanesulfonic acid • Pen/Strep penicillin/streptomycin • PGD2 prostaglandin D2 • PGE2 prostaglandin E2 • PGF2α prostaglandin F2α • PGI2 prostaglandin I2 • TC tissue culture • TP thromboxane A2 receptor • Tris tris(hydroxymethyl)aminomethane • v/v volume to volume ratio (of a solution) • w/w weight to weight ratio (of a solution) B-1. In Vitro Test of Inhibition of Human FP Receptor Activity
For the characterization of test substances in respect of FP antagonism, PGF2α-induced calcium flux in FP-expressing CHEM1 cells (Millipore, HTS093C) was used.
Prior to the measurement, the medium is replaced by 30 μl of Fluo-8 AM loading buffer [calcium-free Tyrode (130 mM NaCl, 5 mM KCl, 20 mM HEPES, 1 mM MgCl2, 4.8 mM NaHCO3, pH 7.4), 2 mM CaCl2, 1× SmartBlock (from CANDOR Bioscience GmbH), 4.5 mM Probenecid, 5 μM Fluo-8 AM, 0.016% Pluronic®, 0.04% Brilliant black] and incubated at 37° C./5% CO2 for 30 minutes. […] 10 μl of the prediluted substance solution are added to the Fluo-8-laden cells and incubated at 37° C./5% CO2 for 10 minutes. The FP receptor is activated by adding 20 μl of 3 nM (final concentration) PGF2α in calcium-free Tyrode/2 mM CaCl2/0.04% Brilliant black, and the calcium flux is determined by measuring the fluorescence at ex. 470 nm/[…].
Table 1 below lists the IC50 values from this assay for individual working examples of the invention (some as mean values from multiple independent individual determinations): […]

[2] = eliminated renally; cited from earlier work
[3] = unstable molecule, rearranged enzymatically in lung, liver and kidney to 15-ketodihydro-PGF2α; cited from earlier work

Chain of human FP receptor (P43088 whole entry): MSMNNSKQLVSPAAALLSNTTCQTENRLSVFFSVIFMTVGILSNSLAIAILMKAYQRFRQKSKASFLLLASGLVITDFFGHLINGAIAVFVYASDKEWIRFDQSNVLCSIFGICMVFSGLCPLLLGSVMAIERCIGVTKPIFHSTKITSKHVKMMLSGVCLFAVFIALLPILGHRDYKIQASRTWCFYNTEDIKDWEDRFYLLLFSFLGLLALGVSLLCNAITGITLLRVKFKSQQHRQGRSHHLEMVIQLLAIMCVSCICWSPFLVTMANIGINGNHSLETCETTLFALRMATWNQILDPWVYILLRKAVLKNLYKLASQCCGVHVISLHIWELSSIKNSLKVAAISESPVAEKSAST

Molecule	IC50 [1] [nM]	other results
O=C(NC12CCC(C(=O)O)(CC1)CC2)c1c(C2CC2)c(-c2ccccc2)nc2ccc(I)cc12 [Example 33, 4-{[(3-Cyclopropyl-6-iodo-2-phenylquinolin-4-yl)carbonyl]amino}bicyclo[2.2.2]octane-1-carboxylic acid]	51	–
O=C(NC12CCC(C(=O)O)(CC1)CC2)c1c(O)c(-c2ccccc2)nc2ccc(Br)cc12 [Example 35, 4-{[(6-Bromo-3-hydroxy-2-phenylquinolin-4-yl)carbonyl]amino}bicyclo[2.2.2]octane-1-carboxylic acid]	430	–
Cc1c(-c2ccccc2)nc2ccc(Br)cc2c1C(=O)NC12CC(C(=O)O)(C1)C2 [Example 37, 3-{[(6-Bromo-3-methyl-2-phenylquinolin-4-yl)carbonyl]amino}bicyclo[1.1.1]pentane-1-carboxylic acid]	723	–
Cc1c(-c2ccccc2)nc2ccc(I)cc2c1C(=O)NC12CCC(C(=O)O)(CC1)C2 [Example 38, 4-{[(6-Iodo-3-methyl-2-phenylquinolin-4-yl)carbonyl]amino}bicyclo [2.2.1]heptane-1-carboxylic acid]	1280	–
Cc1c(-c2ccccc2)nc2ccc(Br)cc2c1C(=O)NC12CCCC(C(=O)O)(CC1)CC2 [Example 39, 5-{[(6-Bromo-3-methyl-2-phenylquinolin-4-yl)carbonyl]amino}bicyclo[3.2.2]nonane-1-carboxylic acid]	230	–
O=C(NC12CCCC(C(=O)O)(CC1)CC2)c1c(Cl)c(-c2ccccc2)nc2ccc(I)cc12 [Example 41, 5-{[(3-Chloro-6-iodo-2-phenylquinolin-4-yl)carbonyl]amino}bicyclo[3.2.2]nonane-1-carboxylic acid]	48	–
O=C(NC12CCCC(C(=O)O)(CC1)CC2)c1c(C2CC2)c(-c2ccccc2)nc2ccc(I)cc12 [Example 42, 5-{[(3-Cyclopropyl-6-iodo-2-phenylquinolin-4-yl)carbonyl]amino}bicyclo[3.2.2]nonane-1-carboxylic acid]	33	–
O=C(NC12C3C4C1C1C2C3C41C(=O)O)c1c(Cl)c(-c2ccccc2)nc2ccc(Br)cc12 (stereo not shown) [Example 45, 4-{[(6-Bromo-3-chloro-2-phenylquinolin-4-yl)carbonyl]amino}cubane-1-carboxylic acid]	161	–
Cc1c(-c2ccc(Cl)s2)nc2ccc(Br)cc2c1C(=O)NC12CCC(C(=O)O)(CC1)CC2 [Example 54, 4-({[6-Bromo-2-(5-chloro-2-thienyl)-3-methylquinolin-4-yl]carbonyl}amino)bicyclo[2.2.2]octane-1-carboxylic acid]	240	–
Cc1c(-c2ccccc2)nc2ccc(Br)cc2c1C(=O)NC12CCC(C(=O)O)(CC1)C(=O)C2 [Example 57, 4-{[(6-Bromo-3-methyl-2-phenylquinolin-4-yl)carbonyl]amino}-2-oxobicyclo[2.2.2]octane-1-carboxylic acid]	637	–
Cc1c(-c2ccccc2)nc2ccc(Br)cc2c1C(=O)NC12CCC(C(=O)O)(CC1)C(F)(F)C2 [Example 58, 4-{[(6-Bromo-3-methyl-2-phenylquinolin-4-yl)carbonyl]amino}-2,2-difluorobicyclo[2.2.2]octane-1-carboxylic acid]	668	–
Cc1c(-c2ccccc2)nc2ccc(Br)cc2c1C(=O)NC12CCC(C(=O)O)(CC1=O)CC2=O [Example 63, 4-{[(6-Bromo-3-methyl-2-phenylquinolin-4-yl)carbonyl]amino}-3,5-dioxobicyclo [2.2.2]octane-1-carboxylic acid]	82	–
Cc1c(-c2ccccc2)nc2ccc(I)cc2c1C(=O)NC12CCC(C(=O)O)(CC1)OC2 [Example 64, 4-{[(6-Iodo-3-methyl-2-phenylquinolin-4-yl)carbonyl]amino}-2-oxabicyclo [2.2.2]octane-1-carboxylic acid]	762	–
N#Cc1c(-c2ccccc2)nc2ccc(Br)cc2c1C(=O)NC12CCC(C(=O)O)(CC1)CC2 [Example 66, 4-{[(6-Bromo-3-cyano-2-phenylquinolin-4-yl)carbonyl]amino}bicyclo[2.2.2]octane-1-carboxylic acid]	762	–
Bleomycin	–	half-life [2]: about 3 hours
Prostaglandin F2alpha [PGF2α]	–	t1/2 [3]: < 1 min

Continued by falling IC50 [1], values first:

IC50 [1] [nM]	Molecule	other results
824	Cc1c(-c2ccccc2)nc2ccc(Br)cc2c1C(=O)N[C@@H]1[C@@H]2CC[C@H]1C[C@H](C(=O)O)C2 [Example 65, (3-exo,8-anti)-8-{[(6-Bromo-3-methyl-2-phenylquinolin-4-yl)carbonyl]amino}bicyclo[3.2.1]octane-3-carboxylic acid]	–
553	Cc1c(-c2ccccc2)nc2ccc(Br)cc2c1C(=O)NC12CCC(C(N)=O)(CC1)CC2 [Example 36, 6-Bromo-N-(4-carbamoylbicyclo[2.2.2]oct-1-yl)-3-methyl-2-phenylquinoline-4-carboxamide]	–
505	Cc1c(-c2ccccc2)nc2ccc(C(F)(F)F)cc2c1C(=O)NC12CCC(C(=O)O)(CC1)CC2 [Example 34, 4-({[3-Methyl-2-phenyl-6-(trifluoromethyl)quinolin-4-yl]carbonyl}amino)bicyclo[2.2.2]octane-1-carboxylic acid]	–
440	C=Cc1c(-c2ccccc2)nc2ccc(Br)cc2c1C(=O)NC12CCC(C(=O)O)(CC1)CC2 [Example 67, 4-{[(6-Bromo-2-phenyl-3-vinylquinolin-4-yl)carbonyl]amino}bicyclo[2.2.2]octane-1-carboxylic acid]	–
383	Cc1c(-c2ccc(Br)s2)nc2ccc(Br)cc2c1C(=O)NC12CCC(C(=O)O)(CC1)CC2 [Example 55, 4-({[6-Bromo-2-(5-bromo-2-thienyl)-3-methylquinolin-4-yl]carbonyl}amino)bicyclo[2.2.2]octane-1-carboxylic acid]	–
235	Cc1ccc(-c2nc3ccc(Br)cc3c(C(=O)NC34CCC(C(=O)O)(CC3)CC4)c2C)s1 [Example 53, 4-({[6-Bromo-3-methyl-2-(5-methyl-2-thienyl)quinolin-4-yl]carbonyl}amino)bicyclo[2.2.2]octane-1-carboxylic acid]	–
198	Cc1c(-c2ccccc2)nc2ccc(Br)cc2c1C(=O)NC12C3C4C1C1C2C3C41C(=O)O (stereo not shown) [Example 43, 4-{[(6-Bromo-3-methyl-2-phenylquinolin-4-yl)carbonyl]amino}cubane-1-carboxylic acid]	–
195	O=C(NC12CCCC(C(=O)O)(CC1)CC2)c1c(Cl)c(-c2ccccc2)nc2ccc(Br)cc12 [Example 40, 5-{[(6-Bromo-3-chloro-2-phenylquinolin-4-yl)carbonyl]amino}bicyclo[3.2.2]nonane-1-carboxylic acid]	–
148	C#Cc1ccc2nc(-c3ccccc3)c(C)c(C(=O)NC34CCC(C(=O)O)(CC3)CC4)c2c1 [Example 56, 4-{[(6-Ethynyl-3-methyl-2-phenylquinolin-4-yl)carbonyl]amino}bicyclo[2.2.2]octane-1-carboxylic acid]	–
73	Cc1c(-c2ccccc2)nc2ccc(I)cc2c1C(=O)NC12C3C4C1C1C2C3C41C(=O)O (stereo not shown) [Example 44, 4-{[(6-Iodo-3-methyl-2-phenylquinolin-4-yl)carbonyl]amino}cubane-1-carboxylic acid]	–
58	Cc1c(-c2cc(Br)cs2)nc2ccc(Br)cc2c1C(=O)NC12CCC(C(=O)O)(CC1)CC2 [Example 52, 4-({[6-Bromo-2-(4-bromo-2-thienyl)-3-methylquinolin-4-yl]carbonyl}amino)bicyclo[2.2.2]octane-1-carboxylic acid]	–
22	O=C(NC12CCC(C(=O)O)(CC1)CC2)c1c(Cl)c(-c2ccccc2)nc2ccc(I)cc12 [Example 32, 4-{[(3-Chloro-6-iodo-2-phenylquinolin-4-yl)carbonyl]amino}bicyclo[2.2.2]octane-1-carboxylic acid]	–
